Here are results for five compounds from BindingDB's records for doi:10.1021/jm9805642 (Pharmacia and Upjohn, 1999).

Molecules are shown by their SMILES.

The target in this test is Cytosol aminopeptidase (Sus scrofa) (UniProt P28839). As to the kind of experiment: Inhibition against Leucyl aminopeptidase from pig kidney.
Chain of Cytosol aminopeptidase (Sus scrofa) (P28839 whole entry, looked up): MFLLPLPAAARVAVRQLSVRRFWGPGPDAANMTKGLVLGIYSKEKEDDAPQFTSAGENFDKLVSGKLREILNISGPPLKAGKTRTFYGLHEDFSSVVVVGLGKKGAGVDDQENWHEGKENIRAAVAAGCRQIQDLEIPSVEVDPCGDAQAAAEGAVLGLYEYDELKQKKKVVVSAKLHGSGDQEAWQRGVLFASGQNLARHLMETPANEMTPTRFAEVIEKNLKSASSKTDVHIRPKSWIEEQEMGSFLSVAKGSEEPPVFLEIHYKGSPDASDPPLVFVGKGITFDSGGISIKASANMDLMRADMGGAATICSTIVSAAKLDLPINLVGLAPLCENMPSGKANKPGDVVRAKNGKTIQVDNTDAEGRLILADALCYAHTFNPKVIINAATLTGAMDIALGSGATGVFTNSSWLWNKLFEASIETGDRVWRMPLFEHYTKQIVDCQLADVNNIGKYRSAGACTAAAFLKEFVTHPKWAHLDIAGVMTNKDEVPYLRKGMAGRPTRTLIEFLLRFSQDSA
Consider `C[C@H](NC(=O)[C@@H]1CCCN1C(=O)[C@@H]1CCCN1C(=O)[C@@H](O)[C@H](N)Cc1ccccc1)C(N)=O` [(S)-1-[(S)-1-((2S,3R)-3-Amino-2-hydroxy-4-phenyl-butyryl)-pyrrolidine-2-carbonyl]-pyrrolidine-2-carboxylic acid ((S)-1-carbamoyl-ethyl)-amide], for which half-maximal inhibition (IC50) was put at 0.3 µM. In other words, the sub-micromolar range. For `NC(=O)[C@@H]1CCCN1C(=O)[C@@H]1CCCN1C(=O)[C@@H](O)[C@H](N)Cc1ccccc1` [(S)-1-[(S)-1-((2S,3R)-3-Amino-2-hydroxy-4-phenyl-butyryl)-pyrrolidine-2-carbonyl]-pyrrolidine-2-carboxylic acid amide] the value was 2.5 µM. On to `C[C@H](NC(=O)[C@@H]1CCCN1C(=O)C1CCCC1S)C(N)=O` (stereo partly drawn) [(S)-1-(2-Mercapto-cyclopentanecarbonyl)-pyrrolidine-2-carboxylic acid ((S)-1-carbamoyl-ethyl)-amide], for which the IC50 (commonly the midpoint of a concentration-inhibition curve) is greater than 1000 µM. Compound `C[C@H](NC(=O)[C@@H]1CCCN1C(=O)[C@@H]1CC(O)CN1C(=O)[C@@H](O)[C@H](N)Cc1ccccc1)C(N)=O` (stereo not given in full) [1-[1-(3-Amino-2-hydroxy-4-phenyl-butyryl)-4-hydroxy-pyrrolidine-2-carbonyl]-pyrrolidine-2-carboxylic acid (1-carbamoyl-ethyl)-amide] registered an IC50 of 1.6 µM.

Compound `C[C@H](NC(=O)[C@@H]1CCCN1C(=O)C1CCCCC1C(=O)NO)C(N)=O` (stereo partly drawn) [(S)-1-(2-Hydroxycarbamoyl-cyclohexanecarbonyl)-pyrrolidine-2-carboxylic acid ((S)-1-carbamoyl-ethyl)-amide] had an IC50 greater than 1000 µM.
